Test results published in patent publication US9464326B2, “Total and phosphorylated IL-1 receptor-associated kinase-1 and IL-1 receptor-associated kinase-4 as a biomarker for cancer progression and chemotherapy resistance” (University of Maryland, Baltimore, priority 2012, dated 2016).

Experiments:
[1] = tested on: Jurkat; test: Proliferation (3H-thymidine) of Jurkat; format: cell-based, human
Description: (§1) CCRF-CEM, CEM/C1, CEM/C2, CEM-C7, Jurkat, Loucy, Molt-4, HSB-2, SUP-T1, Hut 78, HH, Hut 102, MO, and H9 T-leukemia and T-lymphoma cell lines were purchased from the American Type Culture Collection (Manassas, Va., USA). All of the cell lines were initially expanded and cryopreserved within one month of receipt. Cells were typically used for 6 months at which time a fresh vial of cryopreserved cells was used. Total T cells from healthy donors were isolated via negative selection followed by positive selection using a CD3+ selection kit (Invitrogen, Carlsbad, Calif.). T cells were isolated from patients with T-ALL bone marrow or peripheral blood samples containing more than 70% leukemia cells using a CD2+ isolation kit (STEMCELL Technologies, Vancouver, Canada). All tissues were collected under institutional IRB-approved protocols and all participants gave written informed assent/consent. For in vitro experiments, T-ALL cells were cultured in AIM-V medium supplemented with 20% human AB serum in the presence of recombinant human stem cell factor (50 ng/mL; Amgen, Thousand Oaks, Calif.), insulin (20 nM; Sigma-Aldrich, St Louis, Mo., USA) and IL-7 (50 ng/mL; R&D Systems, Minneapolis, Minn., USA). In other experiments, protein lysate was collected using the Full Moon Biosystems (Sunnyvale, Calif., USA) buffer prior to protein examination by western blot or protein array.
(§2) Cells were cultured in a 96-well plate (Corning Costar, Corning, N.Y., USA) with various concentrations of TLR ligands 1-9, starting at 10 μg/ml, in a final volume of 200 ul. TLR ligands were diluted 2-fold. Cell lines (25-40×10^3/well) were cultured for 54 hours, whereas fresh patient-derived T-ALL cells (200×10^3/well) were cultured for 30 hours prior to adding [^3H]-thymidine for 18 hours. After this time point, cells were harvested with a Packard Filter-Mate-96 cell harvester (Perkin Elmer, Waltham, Mass., USA) and counted on Packard Top Count-NXT (Perkin Elmer, Waltham, Mass., USA). Results were expressed as average counts per minute (cpm). In some experiments CCRF-CEM cells were pre-treated with TLR1-TLR2 ligand (Pam3CysK4; 2.5 ug/ml) for 48 hrs, washed, and then cultured in the presence of varying concentrations of FBS. Forty-eight hours later, proliferation (±SD) was determined by ^3H-thymidine incorporation. Alternatively, apoptosis was measured by flow cytometry after staining cells with Annexin-V (BD Pharmingen, San Diego, Calif., USA) and propidium iodide (Sigma). Cell number was counted under microscopy by staining cells with trypan blue. […]

[2] = tested on: Loucy; test: Proliferation (3H-thymidine) of Loucy; format: cell-based, human; details: 3H-thymidine uptake, 72 h
Description: as §1, §2

[3] = tested on: stage IA cutaneous T-lymphoma; details: topical cream containing 5% Imiquimod; cited from earlier work
[4] = tested on: Primary T-cells Non-Act; test: Proliferation (3H-thymidine) of non-activated primary T-cells; format: cell-based, human; details: 3H-thymidine uptake, 72 h
Description: as §1, with “In other experiments, protein lysate was collected using the Full Moon Biosystems (Sunnyvale, Calif., USA) buffer prior to protein examination by western blot or protein array.” left out
as §2, with “TLR ligands were diluted 2-fold. Cell lines (25-40×10^3/well) were cultured for 54 hours, whereas fresh patient-derived T-ALL cells (200×10^3/well) were cultured for 30 hours prior to adding [^3H]-thymidine for 18 hours.” left out, “In some experiments CCRF-CEM cells were pre-treated with TLR1-TLR2 ligand (Pam3CysK4; 2.5 ug/ml) for 48 hrs, washed, and then cultured in the presence of varying concentrations of FBS.” left out

[5] = tested on: HH; test: Proliferation (3H-thymidine) of HH; format: cell-based, human; details: 3H-thymidine uptake, 72 h
Description: as §1, with “In other experiments, protein lysate was collected using the Full Moon Biosystems (Sunnyvale, Calif., USA) buffer prior to protein examination by western blot or protein array.” left out
as §2, with “TLR ligands were diluted 2-fold. Cell lines (25-40×10^3/well) were cultured for 54 hours, whereas fresh patient-derived T-ALL cells (200×10^3/well) were cultured for 30 hours prior to adding [^3H]-thymidine for 18 hours.” left out, “In some experiments CCRF-CEM cells were pre-treated with TLR1-TLR2 ligand (Pam3CysK4; 2.5 ug/ml) for 48 hrs, washed, and then cultured in the presence of varying concentrations of FBS.” left out

[6] = tested on: Hut 102; test: Proliferation (3H-thymidine) of Hut 102; format: cell-based, human; details: 3H-thymidine uptake, 72 h
Description: as §1, with “In other experiments, protein lysate was collected using the Full Moon Biosystems (Sunnyvale, Calif., USA) buffer prior to protein examination by western blot or protein array.” left out
as §2, with “TLR ligands were diluted 2-fold. Cell lines (25-40×10^3/well) were cultured for 54 hours, whereas fresh patient-derived T-ALL cells (200×10^3/well) were cultured for 30 hours prior to adding [^3H]-thymidine for 18 hours.” left out, “In some experiments CCRF-CEM cells were pre-treated with TLR1-TLR2 ligand (Pam3CysK4; 2.5 ug/ml) for 48 hrs, washed, and then cultured in the presence of varying concentrations of FBS.” left out

[7] = tested on: Primary T-cells Activated; test: Proliferation (3H-thymidine) of activated primary T-cells; format: cell-based, human; details: Primary T-cells, Activated
Description: as §1
(§3) Cells were cultured in a 96-well plate (Corning Costar, Corning, N.Y., USA) with various concentrations of TLR ligands 1-9, starting at 10 μg/ml, in a final volume of 200 ul. TLR ligands were diluted 2-fold. Cell lines (25-40×10^3/well) were cultured for 54 hours, whereas fresh patient-derived T-ALL cells (200×10^3/well) were cultured for 30 hours prior to adding [^3H]-thymidine for 18 hours. After this time point, cells were harvested with a Packard Filter-Mate-96 cell harvester (Perkin Elmer, Waltham, Mass., USA) and counted on Packard Top Count-NXT (Perkin Elmer, Waltham, Mass., USA). Results were expressed as average counts per minute (cpm). In some experiments CCRF-CEM cells were pre-treated with TLR1-TLR2 ligand (Pam3CysK4; 2.5 ug/ml) for 48 hrs, washed, and then cultured in the presence of varying concentrations of FBS. Forty-eight hours later, proliferation (±SD) was determined by ^3H-thymidine incorporation. Alternatively, apoptosis was measured by flow cytometry after staining cells with Annexin-V (BD Pharmingen, San Diego, Calif., USA) and propidium iodide (Sigma). Cell number was counted under microscopy by staining cells with trypan blue.
(§4) The following TLR ligands were purchased from Invivogen (San Diego, Calif., USA): tripalmitoyl-S-(bis(palmitoyloxy)propyl)-Cys-Ser-(Lys)3-Lys (TLR1-2); Poly I:C (TLR3); ultrapure S. Minnesota Lipopolysaccharide (TLR4); S. typhimurium flagellin (TLR5); FSL-1 (TLR2/6); Imiquimod (TLR7); ssRNA40/Lyovec (TLR8); CpG-ODN 2006 (TLR9).

[8] = tested on: CCRF-CEM; test: Proliferation (3H-thymidine) of CCRF-CEM; format: cell-based, human; details: 3H-thymidine uptake, 72 h
Description: as §1, §3, §4

[9] = tested on: CEM-C1; test: Proliferation (3H-thymidine) of CEM-C1; format: cell-based, human; details: 3H-thymidine uptake, 72 h
Description: as §1, §2

[10] = tested on: Hut-78; test: Proliferation (3H-thymidine) of Hut-78; format: cell-based, human; details: 3H-thymidine uptake, 72 h
Description: as §1, with “In other experiments, protein lysate was collected using the Full Moon Biosystems (Sunnyvale, Calif., USA) buffer prior to protein examination by western blot or protein array.” left out
as §2, with “TLR ligands were diluted 2-fold. Cell lines (25-40×10^3/well) were cultured for 54 hours, whereas fresh patient-derived T-ALL cells (200×10^3/well) were cultured for 30 hours prior to adding [^3H]-thymidine for 18 hours.” left out, “In some experiments CCRF-CEM cells were pre-treated with TLR1-TLR2 ligand (Pam3CysK4; 2.5 ug/ml) for 48 hrs, washed, and then cultured in the presence of varying concentrations of FBS.” left out

[11] = tested on: HSB-2; test: Proliferation (3H-thymidine) of HSB-2; format: cell-based, human
Description: as §1, §3, §4

[12] = tested on: SupT1; test: Proliferation (3H-thymidine) of SupT1; format: cell-based, human; details: SupT1
Description: as §1, §3, §4

[13] = tested on: CEM-C7; test: Proliferation (3H-thymidine) of CEM-C7; format: cell-based, human; details: 3H-thymidine uptake, 72 h
Description: as §1, §3, §4

[14] = tested on: Molt-4; test: Proliferation (3H-thymidine) of Molt-4; format: cell-based, human; details: 3H-thymidine uptake, 72 h
Description: as §1, with “In other experiments, protein lysate was collected using the Full Moon Biosystems (Sunnyvale, Calif., USA) buffer prior to protein examination by western blot or protein array.” left out
as §2, with “TLR ligands were diluted 2-fold. Cell lines (25-40×10^3/well) were cultured for 54 hours, whereas fresh patient-derived T-ALL cells (200×10^3/well) were cultured for 30 hours prior to adding [^3H]-thymidine for 18 hours.” left out, “In some experiments CCRF-CEM cells were pre-treated with TLR1-TLR2 ligand (Pam3CysK4; 2.5 ug/ml) for 48 hrs, washed, and then cultured in the presence of varying concentrations of FBS.” left out

[15] = tested on: CEM-C2; test: Proliferation (3H-thymidine) of CEM-C2; format: cell-based, human; details: 3H-thymidine uptake, 72 h
Description: as §1, §2

[16] = tested on: MO; test: Proliferation (3H-thymidine) of MO; format: cell-based, human; details: 3H-thymidine uptake, 72 h
Description: as §1, with “In other experiments, protein lysate was collected using the Full Moon Biosystems (Sunnyvale, Calif., USA) buffer prior to protein examination by western blot or protein array.” left out
as §2, with “TLR ligands were diluted 2-fold. Cell lines (25-40×10^3/well) were cultured for 54 hours, whereas fresh patient-derived T-ALL cells (200×10^3/well) were cultured for 30 hours prior to adding [^3H]-thymidine for 18 hours.” left out, “In some experiments CCRF-CEM cells were pre-treated with TLR1-TLR2 ligand (Pam3CysK4; 2.5 ug/ml) for 48 hrs, washed, and then cultured in the presence of varying concentrations of FBS.” left out

[17] = tested on: H9; test: Proliferation (3H-thymidine) of H9; format: cell-based, human; details: H9; 3H-thymidine uptake, 72 h
Description: as §1, §3, §4

[18] = tested on: A375 melanoma cells; test: Western blot of cleaved PARP and caspase-3; format: cell-based, human; details: single agent alone, 48 hrs, FIG. 8D
Method: FIG. 8. […] (A) A375 and Malme-3M melanoma cells were cultured with or without 2.5 μM of IRAK-1,-4 and in the presence varying concentrations of vinblastine, cisplatin or 5′ Fluorouracil. Forty-eight hours later apoptosis was evaluated by staining cells with annexin-V and propidium iodide and analyzed by flow cytometry. (B) A375 cells were transfected via electroporation with siRNA-IRAK-1,-4. IRAK-1 protein levels were examined by Western blotting. […], A375-psiRNA-hIRAK-1, A375-psiRNA-hIRAK-4, or cells expressing both psiRNA-hIRAK-1 and -4 were cultured in the presence of vinblastine (100 nmol/L) for 48 hours and apoptosis was examined by flow cytometry. (C) A375 melanoma cells were cultured in the presence of vehicle alone (DMSO) or various concentrations of IRAK-1,-4. Forty-eight hours later cell lysates were used to analyze the expression of levels of cleaved PARP or caspase-3 by Western blots. (D) A375 melanoma cells were cultured with or without 2.5 μM of IRAK.-1,-4 and in the presence or absence of vinblastine for 48 hrs. PARP and caspase-3 levels were determined by Western blot.
Total cell extracts were prepared from melanoma cells. […] Melanoma tissue arrays were purchased from US Biomax, Inc (Rockville, Md.). For immunohistochemical staining samples were stained with mouse monoclonal anti-human phosphor-IRAK.-4 antibody (Abnova; dilution, 3.5 μg/ml) or normal mouse serum. Tissue histology sections (5-μm-thick) were deparaffinized, hydrated, heated in boiling 10 mmol/L sodium citrate (pH 6.0), for antigen retrieval, for 30 min and washed in Tris buffer. Peroxide blocking was done with 3% […] in methanol at room temperature for 15 min, followed by 10% fetal bovine serum in TBS-t for 30 min at room temperature. Primary antibody incubation was done overnight at 4° C. Secondary antibody incubation with horse anti-mouse (1:200; Vector Laboratories, Burlingame, Calif.) was done for 1 hr, followed by application of diaminobenzidine chromogen for 5 min. The slides were then counterstained with hematoxylin and topped with a coverslip. IHC specimens were analyzed using “quick score” system in which the intensity of the immunohistochemical reaction was scored by multiplying the intensity 1 (weak), 2 (moderate), and 3 (strong) and the proportion of cells staining positively 0 (<10%), 1 (10-25%), 2 (26-50%), 3 (51-75%) or 4 (>75%).

[19] = tested on: A375 melanoma cells; test: A375 melanoma xenograft model; details: IRAK-1,-4 inhibitor 35 mg/kg intratumorally, vinblastine 0.25 mg/kg i.p.; control 17 days
Method: (A-B) NSG mice (n=5) were injected subcutaneously with A375 melanoma cells. When tumors reached a size of approximately 50 mm^2 mice remained untreated or injected intraperitoneally with vinblastine mg/kg; administered every 2 days for 10 days), or peritumorally with IRAK-1,-4 inhibitor (35 mg/kg), or vinblastine plus IRAK.-1,-4 inhibitor. Tumor sizes were calculated by measuring perpendicular by longitudinal diameter;*, P<0.05. Mouse survival data were analyzed using the exact log-rank test;*, P<0.05, **P<0.001.
NOD.Cg-Prkdc^scid Il2rg^tmWJZ; SzJ IL2RG (NSG) mice (Jackson Laboratories, Bar Harbor, Me.) were subcutaneously (s.c.) injected with 2.5×10^6 A375 melanoma cells delivered in PBS. […] When tumors reached a size of approximately 50 mm^2 mice were injected intratumorally (i.t.) with 35 mg/kg of IRAK-1,-4 inhibitor or an equal volume of vehicle (DMSO). Mice were intraperitoneally (i.p.) injected with vinblastine (0.25 mg/kg) every 2 days for 5 days starting on the same day that mice received with IRAK-1,-4 inhibitor. Tumor sizes were analyzed using a mixed model approach for repeated measurements and mouse survival data were analyzed with the exact log-rank test.

## CC(C)Cn1cnc2c(N)nc3ccccc3c21 [Imiquimod]
[1]; 3H-thymidine uptake, 72 h
  Proliferative effects of TLR ligands: − (reduced proliferation)
[1]; no unit in table (μg/ml)
  TLR ligand concentration in parentheses below the symbol: (10)
[2]
  Proliferative effects of TLR ligands: ∘
[3]
  treatment outcome: successfully treated
[4]
  Proliferative effects of TLR ligands: ∘
[5]
  Proliferative effects of TLR ligands: ∘
[6]
  Proliferative effects of TLR ligands: ∘
[7]; 3H-thymidine uptake, 72 h
  Proliferative effects of TLR ligands: − (reduced proliferation)
[7]; no unit in table (μg/ml)
  TLR ligand concentration in parentheses below the symbol: (5)
[8]
  Proliferative effects of TLR ligands: ∘
[9]
  Proliferative effects of TLR ligands: ∘
[10]
  Proliferative effects of TLR ligands: ∘
[11]; 3H-thymidine uptake, 72 h
  Proliferative effects of TLR ligands: − (reduced proliferation)
[11]; no unit in table (μg/ml)
  TLR ligand concentration in parentheses below the symbol: (1.2)
[12]; 3H-thymidine uptake, 72 h
  Proliferative effects of TLR ligands: − (reduced proliferation)
[12]; no unit in table (μg/ml)
  TLR ligand concentration in parentheses below the symbol: (0.6)
[13]
  Proliferative effects of TLR ligands: ∘
[14]
  Proliferative effects of TLR ligands: ∘
[15]
  Proliferative effects of TLR ligands: ∘
[16]
  Proliferative effects of TLR ligands: ∘
[17]
  Proliferative effects of TLR ligands: ∘

## CC[C@]1(O)C[C@@H]2CN(CCc3c([nH]c4ccccc34)[C@@](C(=O)OC)(c3cc4c(cc3OC)N(C)[C@H]3[C@@](O)(C(=O)OC)[C@H](OC(C)=O)[C@]5(CC)C=CCN6CC[C@]43[C@@H]65)C2)C1 [vinblastine]
[18]
  levels of cleaved PARP and caspase-3: little effect
[19]
  median survival: 22 days
